This note sets out measurements from patent publication US20210052633A1, “HYALURONIC ACID SYNTHESIS PROMOTER, METHOD FOR PROMOTING HYALURONIC ACID SYNTHESIS, AND CELL EVALUATION METHOD” (SEIKAGAKU CORPORATION, priority 2018, published 2021).

This assay has as its system Human synovial cells derived from a patient with rheumatism (HFLS-RA). As to the kind of experiment: Hyaluronic acid synthesis by synovial cells ([3H] glucosamine incorporation, HPLC fractionation by molecular weight). In kind it is cell-based. As to conditions: Example 4, HFLS-RA, 48 hours. The method, then:
Compound 1 or sodium hyaluronate (HA) (ARTZ Dispo (registered trademark) (manufactured by Seikagaku Corporation)) was mixed in a solution containing a phosphate buffer solution (GIBCO) and an α-MEM (GIBCO) concentrated medium. Further, each reagent was added and mixed in the resulting solution so that the final concentrations were as follows: 10% (v/v) fetal bovine serum (hereinafter FBS (MP Biomedicals)), 10 ng/mL recombinant human IL-1β/IL-1F2 (hereinafter IL-1β (R & D Systems)), 1% (w/v) penicillin/streptomycin (GIBCO), and 370 kBq/mL [^3H] glucosamine (Perkin Elmer). As a result, the following five solutions were obtained as test substances.
Human synovial cells derived from a patient with rheumatism (HFLS-RA, CELL APPLICATIONS, INC.) were subcultured and grown in a 175-cm^2 flask. In the cell culture, Basal medium (containing 10% (v/v) Growth supplement and 1% (w/v) penicillin/streptomycin) (manufactured by Cell Applications, Inc.) was used. Thereafter, the cells were seeded in a 6-well plate at 3.0×10^5 cells/2 mL/well and cultured for about 24 hours until confluence was reached. In the cell culture, α-MEM medium (containing 10% (v/v) FBS and 1% (w/v) penicillin/streptomycin) was used. After removing the culture supernatant, 2 mL of the test substance was added to the cells, and the cells were further cultured for 48 hours. The culture was performed at 37° C. in a CO2 incubator (5% (v/v) CO2). After completion of the culture, the culture supernatant was collected and cryopreserved in an ultra-low temperature freezer until measurement.
Since glucosamine is a constituent monosaccharide of hyaluronic acid, in hyaluronic acid newly synthesized in the cells after addition of the test substance, [^3H] glucosamine is incorporated. Therefore, hyaluronic acid in the collected culture supernatant was separated according to molecular weight using HPLC, and fractions were collected every 0.5 minutes using a fraction collector. To each of the collected fractions, 0.5 mL of a scintillation fluid was added and mixed. Thereafter, the radioactivity (dpm, disintegrations per minute) of each fraction was measured using a scintillation counter, and the radioactivity (the amount of [^3H] glucosamine incorporated into newly produced hyaluronic acid) was evaluated. The HPLC conditions are as follows.
Mobile phase: a solution of 5 mmol/L phosphate buffer solution (pH 6.0) with 0.82% (w/v) NaCl:acetonitrile=2:1 (v:v)
Column: OH pak SB-805 HQ column (Shodex (registered trademark)), column temperature: 35° C.
The hyaluronic acid standard solution was separated by HPLC, and UV absorption at a wavelength of 210 nm was measured. Fraction No. in which the peak top of the hyaluronic acid standard solution of each molecular weight is collected was calculated. As the hyaluronic acid standard solutions, Select-HATM 500 k (average molecular weight: 528,000), Select-HATM 1,000 k (average molecular weight: 1,076,000), and Select-HATM 2,500 k (average molecular weight: 2,420,000) were used.
The same procedure as in Example 1 was performed. Note that the culture supernatant was collected at respective time points (8, 24, 36, 48, and 72 hours) after adding the test substance to the cells.
A control solution, a 0.01% (w/v %) compound 1 solution, and a 0.01% (w/v %) sodium hyaluronate (HA) solution were prepared in the same manner as in Example 1. DF-Na (0.014 μg/mL, 0.14 μg/mL, 1.4 μg/mL, and 14 μg/mL) solutions were prepared by dissolving DF-Na in the control solution. Further, a HA+DF-Na mixed liquid was obtained by dissolving DF-Na (1.4 μg/mL) in the 0.01% (w/v %) sodium hyaluronate (HA) solution.
The same procedure as in Example 1 was performed.
The same procedure as in Example 1 was performed. Note that a column (OH pak SB-807 HQ column (Shodex (registered trademark)) having higher separability on the high molecular weight side than the HPLC column (OH pak SB-805 HQ column (Shodex (registered trademark)) was used.

As to `O=C(O)Cc1ccccc1Nc1c(Cl)cccc1Cl` [DF-Na, diclofenac sodium, reference compound], the “action of producing high molecular weight hyaluronic acid observed in the compound 1 group” value (0.01% HA, DF-Na 1.4 μg/mL, or both mixed) was “not observed”. Also, where the note is “DF-Na 1.4 μg/mL”, the “molecular weight peak of hyaluronic acid produced” value is given as ~500,000. For the same compound, where the note is “DF-Na 0.014 to 14 μg/mL”, the “action of promoting hyaluronic acid synthesis” value is “not observed at any concentration”.
